# Experimental data reported in US11072617B2, “Bicyclic sulfones and sulfoxides and methods of use thereof” (Genentech, Inc., priority 2017, dated 2021).
# Target: human RIP1 kinase domain (2-375) (Homo sapiens (Human), UniProt Q13546)
# Test: RIP1 kinase inhibition biochemical assay (Transcreener ADP, fluorescence polarization)
# Conditions: Ki app from tight-binding Morrison equation; 50 nM enzyme, 50 uM ATP, 2 hours incubation
# Experimental: RIP1 Kinase Inhibition Assays (Biochemical Assay)
# The compounds of the present invention were tested for their capacity to inhibit RIP1K activity as described below.
# The ability of the receptor interacting protein kinase (RIPK1) to catalyze the hydrolysis of adenosine-5′-triphosphate (ATP) is monitored using the Transcreener ADP (adenosine-5′-diphosphate) assay (BellBrook Labs). Purified human RIP1 kinase domain (2-375) (50 nM) derived from a baculovirus-infected insect cell expression system is incubated with test compounds for 2 hours in 50 mM Hepes buffer (pH 7.5) containing 30 mM MgCl2, 1 mM dithiothreitol, 50 uM ATP, 0.002% Brij-35, and 0.5% dimethyl sulfoxide (DMSO). Reactions are quenched by the addition of 1× Bell Brooks Stop buffer B (20 mM Hepes (ph7.5), 40 mM ethylenediaminetetraacetic acid and 0.02% Brij-35) containing an additional 12 mM EDTA and 55 ug/mL ADP2 antibody and 4 nM ADP-AlexaFluor® 633 tracer. The tracer bound to the antibody is displaced by the ADP generated during the RIP1K reaction, which causes a decrease in fluorescence polarization that is measured by laser excitation at 633 nm with a FP microplate reader M1000. Fractional activity was plotted against test article concentration. Using Genedata Screener software (Genedata; Basel, Switzerland), the data were fit to the tight-binding apparent inhibition constant (Ki^app) Morrison equation [Williams, J. W. and Morrison, J. F. (1979) The kinetics of reversible tight-binding inhibition. Methods Enzymol 63: 437-67]. The following equation was used to calculate fractional activity and Ki^app:
# [formula] where [E]T and [I]T are the total concentrations of active enzyme and test article, respectively.
# Exemplary compounds of the present invention are provided in Table 1 along with their physiochemical characterization and in vitro RIP1 kinase inhibitory activity data. “Method” in the first column of each table refers to the synthetic method(s) used to prepare each compound as shown in the Examples above. In certain examples, chiral column retention times (min) are provided for certain stereoisomers. Unless otherwise specified, the stereochemistry shown in each structure represents relative configuration of a single stereoisomer, and absolute configuration (i.e., “R” and/or “S”) is arbitrarily assigned. In some embodiments, where the Method is described to include the separation of stereoisomers, a single stereoisomer of a compound of Table 1 is provided.
# Sequence of human RIP1 kinase domain (2-375) (Q13546 2-375): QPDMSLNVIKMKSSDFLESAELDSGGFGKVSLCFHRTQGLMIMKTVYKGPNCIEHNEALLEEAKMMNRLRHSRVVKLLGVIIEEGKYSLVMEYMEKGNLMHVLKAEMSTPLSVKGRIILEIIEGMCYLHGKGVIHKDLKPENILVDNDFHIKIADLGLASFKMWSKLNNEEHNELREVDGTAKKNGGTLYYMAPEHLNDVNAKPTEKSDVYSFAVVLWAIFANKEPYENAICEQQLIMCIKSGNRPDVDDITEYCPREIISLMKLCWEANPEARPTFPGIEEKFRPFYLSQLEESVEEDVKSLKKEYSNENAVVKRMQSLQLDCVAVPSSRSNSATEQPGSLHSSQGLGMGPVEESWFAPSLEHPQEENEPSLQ
row,Ki [nM],Compound
1,3,"O=S(=O)(c1nc2n(n1)[C@H](c1ccccc1Cl)C[C@@H]2F)C(F)(F)F (single isomer, unassigned) [Example 134]"
2,7,"[O-][S+](CC(F)F)c1nc2n(n1)[C@H](c1ccccc1)C[C@@H]2F (stereo partly drawn) [Example 148, (5S,7S)-2-(2,2-difluoroethylsulfinyl)-7-fluoro-5-phenyl-6,7-dihydro-5H-pyrrolo[1,2-b][1,2,4]triazole]"
3,4,"O=S(=O)(c1nc2n(n1)[C@H](c1ccccc1)C[C@@H]2F)[C@H]1C[C@@H]1F (single isomer, unassigned) [Example 146]"
4,510,"CC[S@@+]([O-])c1nc2n(n1)[C@H](c1ccccc1)C[C@@H]2F (single isomer, unassigned) [Example 188]"
5,46,"C[S+]([O-])c1nc2n(n1)[C@H](c1ccccc1)C[C@@H]2F (stereo partly drawn) [Example 105, (5S,7S)-7-fluoro-2-methylsulfinyl-5-phenyl-6,7-dihydro-5H-pyrrolo[1,2-b][1,2,4]triazole]"
6,44,"[O-][S+](CC1CC1)c1nc2n(n1)[C@H](c1ccccc1)C[C@@H]2F (stereo partly drawn) [Example 111, (5S,7S)-2-(cyclopropylmethylsulfinyl)-7-fluoro-5-phenyl-6,7-dihydro-5H-pyrrolo[1,2-b][1,2,4]triazole]"
7,4,"O=S(=O)(c1nc2n(n1)[C@H](c1cccc(F)c1)C[C@@H]2F)C(F)(F)F (single isomer, unassigned) [Example 135]"
8,16,"O=S(=O)(c1nc2n(n1)[C@H](c1cccc(F)c1F)C[C@@H]2F)[C@H]1C[C@H](F)C1 [Example 204, (5S,7S)-5-(2,3-difluorophenyl)-7-fluoro-2-trans-(3-fluorocyclobutyl)sulfonyl-6,7-dihydro-5H-pyrrolo[1,2-b][1,2,4]triazole]"
9,760,"CC(C)[S@+]([O-])c1nc2n(n1)[C@H](c1ccccc1)C[C@@H]2F (single isomer, unassigned) [Example 189]"
10,19,"[O-][S+](c1nc2n(n1)[C@H](c1cc(F)cc(F)c1)CC2)C(F)F (stereo in doubt) [Example 173, (5S)-2-[(S)-difluoromethylsulfinyl]-5-(3,5-difluorophenyl)-6,7-dihydro-5H-pyrrolo[1,2-b][1,2,4]triazole]"
11,< 5,"O=S(=O)(c1nc2n(n1)[C@H](c1cc(F)ccc1F)C[C@@H]2F)[C@H]1CC1(F)F (single isomer, unassigned) [Example 126]"
12,4,"O=S(=O)(c1nc2n(n1)[C@H](c1ccccc1F)C[C@@H]2F)C(F)(F)F (single isomer, unassigned) [Example 133]"
13,140,"[O-][S@@+](c1nc2n(n1)[C@H](c1ccccc1F)C[C@@H]2F)C(F)F (single isomer, unassigned) [Example 51]"
14,22,"CS(=O)(=O)c1nc2n(n1)[C@H](c1ccccc1)C[C@@H]2F (single isomer, unassigned) [Example 106]"
15,25,"O=S(=O)(c1nc2n(n1)[C@H](c1cc(F)ccc1F)C[C@@H]2F)C1CC1F (stereo in doubt) [Example 201, (5S,7S)-5-(2,5-difluorophenyl)-7-fluoro-2-[(1S,2S)-2-fluorocyclopropyl]sulfonyl-6,7-dihydro-5H-pyrrolo[1,2-b][1,2,4]triazole]"
16,100,"[O-][S@@+](c1nc2n(n1)[C@H](c1ccccc1)C[C@@H]2F)C(F)F [Example 21, (5S,7S)-2-[(S)-difluoromethylsulfinyl]-7-fluoro-5-phenyl-6,7-dihydro-5H-pyrrolo[1,2-b][1,2,4]triazole]"
17,19,"CC(C)[S+]([O-])c1nc2n(n1)[C@H](c1ccccc1)C[C@@H]2F (stereo partly drawn) [Example 109, (5S,7S)-7-fluoro-2-isopropylsulfinyl-5-phenyl-6,7-dihydro-5H-pyrrolo[1,2-b][1,2,4]triazole]"
18,4,"O=S(=O)(c1nc2n(n1)[C@H](c1ccccc1)C[C@@H]2F)C(F)(F)F (single isomer, unassigned) [Example 137]"
19,89,"[O-][S@@+](c1nc2n(n1)[C@H](c1ccccc1)C[C@@H]2F)C1CC1 [Example 28, (5S,7S)-2-[(R)-cyclopropylsulfinyl]-7-fluoro-5-phenyl-6,7-dihydro-5H-pyrrolo[1,2-b][1,2,4]triazole]"
20,11,"[O-][S+](c1nc2n(n1)[C@H](c1ccccc1)C[C@@H]2F)C(F)(F)F (stereo partly drawn) [Example 132, (5S,7S)-7-fluoro-5-phenyl-2-(trifluoromethylsulfinyl)-6,7-dihydro-5H-pyrrolo[1,2-b][1,2,4]triazole]"

row,Ki [nM],Compound
1,32,"N#CCS(=O)(=O)c1nc2n(n1)[C@H](c1ccccc1)C[C@@H]2F (single isomer, unassigned) [Example 88]"
2,140,"[O-][S@+](CF)c1nc2n(n1)[C@H](c1ccccc1F)C[C@@H]2F (single isomer, unassigned) [Example 75]"
3,3200,"O=S(=O)(c1ccccc1)c1nc2n(n1)[C@H](c1ccccc1)C[C@@H]2F (single isomer, unassigned) [Example 26]"
4,48,"O=S(=O)(c1nc2n(n1)[C@H](c1cc(F)cc(Cl)c1)C[C@@H]2F)C1CC1F (stereo in doubt) [Example 200, (5S,7S)-5-(3-chloro-5-fluoro-phenyl)-7-fluoro-2-[(1R,2R)-2-fluorocyclopropyl]sulfonyl-6,7-dihydro-5H-pyrrolo[1,2-b][1,2,4]triazole]"
5,3,"N#CC[S@@+]([O-])c1nc2n(n1)[C@H](c1ccccc1F)C[C@@H]2F (single isomer, unassigned) [Example 96]"
6,190,"O=S(=O)(CCO)c1nc2n(n1)[C@H](c1ccccc1)C[C@@H]2F (single isomer, unassigned) [Example 223]"
7,5,"O=S(=O)(c1nc2n(n1)[C@H](c1c(F)cccc1F)C[C@@H]2F)C(F)(F)F (single isomer, unassigned) [Example 139]"
8,< 5,"[O-][S@@+](CF)c1nc2n(n1)[C@H](c1cccc(F)c1)C[C@@H]2F (single isomer, unassigned) [Example 82]"
9,270,"O=S(=O)(c1nc2n(n1)[C@H](c1ccccc1)C[C@@H]2F)C(F)(F)CO (single isomer, unassigned) [Example 156]"
10,6,"O=S(=O)(c1nc2n(n1)[C@H](c1cccc(F)c1F)C[C@@H]2F)[C@H]1C[C@@H]1F (single isomer, unassigned) [Example 217]"
11,71,"O=S(=O)(CC(F)(F)F)c1nc2n(n1)[C@H](c1ccccc1)C[C@@H]2F (single isomer, unassigned) [Example 114]"
12,< 5,"O=S(=O)(c1nc2n(n1)[C@H](c1cccc(F)c1)C[C@@H]2F)[C@H]1C[C@@H]1F (single isomer, unassigned) [Example 141]"
13,180,"COCCS(=O)(=O)c1nc2n(n1)[C@H](c1ccccc1)C[C@@H]2F (single isomer, unassigned) [Example 224]"
14,< 5,"[O-][S@@+](CF)c1nc2n(n1)[C@H](c1cc(F)ccc1F)C[C@@H]2F (single isomer, unassigned) [Example 78]"
15,57,"[O-][S+](CC(F)(F)F)c1nc2n(n1)C(c1ccccc1)CC2 (stereo not shown) [Example 177, 5-Phenyl-2-(2,2,2-trifluoroethylsulfinyl)-6,7-dihydro-5H-pyrrolo[1,2-b][1,2,4]triazole]"
16,3,"O=S(=O)(c1nc2n(n1)[C@H](c1ccccc1Cl)C[C@@H]2F)C1CC1 (single isomer, unassigned) [Example 32]"
17,< 5,"O=S(=O)(c1nc2n(n1)[C@H](c1cc(F)ccc1F)C[C@@H]2F)C1CC1F (stereo in doubt) [Example 202, (5S,7S)-5-(2,5-difluorophenyl)-7-fluoro-2-[(1R,2R)-2-fluorocyclopropyl]sulfonyl-6,7-dihydro-5H-pyrrolo[1,2-b][1,2,4]triazole]"
18,52,"O=S(=O)(c1nc2n(n1)[C@H](c1ccccc1)C[C@@H]2F)[C@H]1C[C@@H](CF)C1 (single isomer, unassigned) [Example 169]"
19,4,"O=S(=O)(c1nc2n(n1)[C@H](c1ccccc1)C[C@@H]2F)C1CC1 [Example 30, (5S,7S)-2-cyclopropylsulfonyl-7-fluoro-5-phenyl-6,7-dihydro-5H-pyrrolo[1,2-b][1,2,4]triazole]"
20,150,"CC(C)(C#N)[S+]([O-])c1nc2n(n1)[C@H](c1ccccc1)C[C@@H]2F (stereo partly drawn) [Example 103, 2-[[(5S,7S)-7-fluoro-5-phenyl-6,7-dihydro-5H-pyrrolo[1,2-b][1,2,4]triazol-2-yl]sulfinyl]-2-methyl-propanenitrile]"
